pEC50: −log10 of the molar value. Read-outs that look alike come from different tables or passages of the source.
Experiments:
[1] = test system: S. mansoni juvenile worms; test: Juvenile worm assay (3 week old worms), single point and dose response; format: cell-based; conditions: Schistosoma mansoni
Description: (§1) For production of S. mansoni juvenile or adult worms, mice were infected subcutaneously under mild isoflurane (Merial Animal Health Ltd (UK)) anaesthesia with, respectively 1400 (for juveniles) or 450 cercariae (for adults). Worms were recovered from infected mice using sterile techniques by portal perfusion 3 weeks (for juveniles) or 6 weeks (for adults) post-infection using warm perfusion medium (Dulbecco’s Modified Eagle’s Medium [DMEM], 2mM L-glutamine, 100 Units/ml penicillin, 100μg/ml streptomycin, 20mM Hepes, 10 Units/ml heparin [Sigma, UK] [8]. Adult worms were washed free of red blood cells using the perfusion medium, and finally placed in culture in complete medium (cDMEM: DMEM, 2mM L-glutamine, 100 Units/ml penicillin, 100μg/ml streptomycin, 10% foetal calf serum (FCS) at 37°C, in an atmosphere of 5% CO2. Juvenile worms were sedimented successively following washing with cold perfusion medium and then suspended in cold cDMEM until dispensed to avoid attachment to the plastic tubes.
(§2) For the juvenile assay the concentration of worms was adjusted to 40/ml cDMEM and, prior to dispensing, the suspension was cooled on ice to prevent adherence of the worms to the plastic bottles. After swirling to resuspend worms,150μL of suspension was added to the wells of 96 well microtitre plates (Nunc, Thermo Fisher Scientific, UK). Wells were quickly checked and those with <5 worms were marked. The remainder were made up to 200μL and the deficient wells topped up with a worm suspension to ensure that all wells had ≥5 worms. The adult worm assay was as described in [8] except that 1ml cultures containing 3 worm pairs were generally used. Both the juvenile and adult worm assays were assessed for activity on days +1 and +5. Drug effects were determined by assessing the viability of individual worms and calculating the mean percentage inhibition, a hit being defined as ≥70% reduction in viability.
(§3) The primary HTS and subsequent juvenile and adult screens were run as single point (SP) assays at 10–12.5μM depending on the concentrations in the compound collections. Compounds were tested in duplicate. Where necessary, repeat testing was carried out on re-supplied liquid samples. All compounds of interest were re-tested as solid compounds or by repeat synthesis and activity confirmed.
(§4) Compounds with activity against all three parasite stages were tested in parallel dose response (DR) assays against juvenile worms and MRC-5 cells. Promising compounds were then tested in the adult DR. For the parasite DR (larvae, juveniles and adults) the concentrations tested were two fold dilutions starting from 2x the primary screening concentrations (i.e. 20–25μM).
(§5) IC50 values were calculated from the drug concentration–response curves using Microsoft XLfit version 5.1.0.0 (2006–2008 ID Business Solutions Ltd). Results were expressed as the geometric mean IC50.

[2] = Cytotoxicity assay (Alamar blue); format: cell-based; conditions: human
Description: Activity against mammalian cells was determined using MRC-5 cells. Cells were maintained in Minimum Essential Medium supplemented with glutamax (Gibco, UK), 1% non-essential amino acids (Gibco, UK) and 10% Foetal bovine serum (Gibco, UK). They were harvested by treatment with 0.25% Trypsin-EDTA for 3 minutes and diluted to 1x10^5/ml. 100μl aliquots of the cell suspension were then plated in 96 well plates (Nunc, Thermo Fisher Scientific, UK). The plates were left to incubate for 24 hours at 37°C and 5% CO2 in a humidified incubator. Cytotoxicity DR assays were set up 24 hours post incubation at 5% CO2 and 37°C, with compounds prepared at 3-fold dilutions starting from 50μM. Dilutions were added to the cells such that the final % DMSO/well was 0.5%. Each drug concentration was tested in duplicate. On each 96 well plate there were negative control wells of media only, MRC-5 cells only and MRC-5 cells with 0.5% DMSO. For positive control wells doxorubicin hydrochloride (Sigma-Aldrich, UK) was added to the cells at 100μM concentration. The cultures were then maintained for a further 72 hours at 37°C and 5% CO2. Drug cytotoxicity was determined using the redox indicator Alamar blue (AbD Serotec, UK). 10μl of Alamar Blue was added to each well and the plates incubated for 4 hours at 37°C and 5% CO2 atmosphere. The fluorescence intensity was measured using a Spectramax Gemini plate reader (Molecular Devices, UK) using an excitation wavelength of 530 nm and an emission wavelength of 580 nm.
as §5

S. mansoni adult worms = test: Adult worm assay, single point and dose response; format: cell-based; conditions: Schistosoma mansoni
Description: as §1, §2, §3, §4, §5

S. mansoni schistosomula = test: Larval HTS and larval dose response (image-based phenotype and motility of schistosomula); format: cell-based, Schistosoma mansoni; conditions: for pEC50: Schistosoma mansoni, 72 h, 3 day assay, geometric mean; for Motility score / Phenotype score: 10μM control wells, negative control adjusted to zero
Description: Experiments were performed using the Puerto Rican strain of S. mansoni maintained in Biomphalaria glabrata and CD1 mice. The strain of snail was one bred by Prof Mike Doenhoff (Nottingham University) for high susceptibility to S. mansoni and ease of breeding in large numbers to high density. Careful attention was paid to controlling infections with rotifers which otherwise would contaminate the HTS schistosomula preparations as well as affecting snail viability. This included recovery of egg masses on short length pieces of polypropylene tubing placed into the breeding tanks and treatment of these with 3 x 10 seconds immersion in 70% ethanol with 3 minutes soaking in clean water in between alcohol treatments. Schistosomula were mechanically prepared as previously described with the modification of using a 45% and 70% Percoll gradient, and the cercarial heads recovered from the 70% layer. All centrifugation steps were done at 350x g. The schistosomula generated were then incubated overnight in M169 supplemented with 100U/ml Penicillin, 300μg/ml Streptomycin, 0.25μg/ml Fungizone (Amphotericin B) (Gibco, UK) and 5% Foetal Calf serum.
The larval HTS was run as described previously. Compound libraries were provided in 384 well plates as liquid either (i) small volumes in polypropylene 384 V-bottom storage plates (Greinerbio-one) that were diluted and 500nL dispensed into black 384 imaging plates (ViewPlate 6007460; PerkinElmer) using the Biomek FxP (Beckman Coulter) or (ii) in an assay-ready format from which a 40nL volume was transferred into wells of imaging plates. […] Therefore, to prevent fungal contamination 0.25μg/ml (0.27μM) of amphotericin B (AMP-B) was added to cultures both during the overnight culture prior to plating and during the 3 day assay.
The primary HTS and subsequent juvenile and adult screens were run as single point (SP) assays at 10–12.5μM depending on the concentrations in the compound collections. Compounds were tested in duplicate. Where necessary, repeat testing was carried out on re-supplied liquid samples.
as §4, §5

[3] = 24 h, day 1, read-out: Juvenile (% motility reduction) DAY 1
[4] = 120 h, day 5, read-out: Juvenile (% motility reduction) DAY 5
[5] = first value of cell, geometric mean, * n = 1
[6] = value in parentheses (second sample; solid vs original liquid sample)
[7] = MRC-5 cells, first value of cell, 72 hours, read-out: MRC5 CC50
[8] = MRC-5 cells, value in parentheses (second sample; solid vs original liquid sample), read-out: MRC5 CC50
[9] = 24 h, day 1, read-out: Adult % motility reduction DAY 1
[10] = 120 h, day 5, read-out: Adult % motility reduction DAY 5

| Structure (SMILES) | inhibition at 12.5 µM [1, 3] [%] | inhibition at 12.5 µM [1, 4] [%] | pEC50 [1, 5] | pEC50 [1, 6] | CC50 at 72 h [2, 7] [µM] | CC50 at 72 h [2, 8] [µM] | inhibition at 12.5 µM (S. mansoni adult worms; [9]) [%] | inhibition at 12.5 µM (S. mansoni adult worms; [10]) [%] | pEC50 (S. mansoni adult worms; first value of cell, * n = 1) | pEC50 (S. mansoni adult worms; [6]) | pEC50 (S. mansoni schistosomula) | CC50 at 72 h ([2]; MRC5 CC50) [µM] | Motility score (S. mansoni schistosomula; Enamine library plates) | Phenotype score (S. mansoni schistosomula; Enamine library plates) | Motility score (S. mansoni schistosomula; GSK library plates) | Phenotype score (S. mansoni schistosomula; GSK library plates) | Phenotype score (S. mansoni schistosomula; MMV library plates, mean ±SD) | Motility score (S. mansoni schistosomula; MMV library plates) | Motility score (S. mansoni schistosomula; Pfizer library plates) | Phenotype score (S. mansoni schistosomula; Pfizer library plates) |
| --- | --- | --- | --- | --- | --- | --- | --- | --- | --- | --- | --- | --- | --- | --- | --- | --- | --- | --- | --- | --- |
| COc1ccccc1NC1=NN=C(c2cccc(N3CCCC3=O)c2)CS1 [compound 2389] | 0 | 100 | 5.29 | 5.30 | > 50 | > 50 | 12.5 | 100 | 5.22 | 5.15 | 5.21 |  |  |  |  |  |  |  |  |  |
| COc1ccc(-c2nnc3ccc(-c4cccc(C(C)C)c4)cn23)cc1OC [compound 1507] | 75 | 75 | 5.40 | 5.01 | 18.6 |  | 75 | 88 | 5.80 | 5.52 | 5.18 |  |  |  |  |  |  |  |  |  |
| c1ccc(Oc2ccc(-c3cncc(-c4ccc5[nH]ccc5c4)n3)cc2)cc1 [compound 2045] | 50 | 100 | 5.68 | 5.44 | 20 |  | 37 | 88 | 5.43 | 4.96 | 5.85 |  |  |  |  |  |  |  |  |  |
| Clc1ccc(SCc2cc(N3CCCC3)nc(-c3ccccn3)n2)cc1 [compound 1716] | 0 | 84 | 4.96 | 5.02 | > 50 | > 50 | 64 | 98 | 5.55 | 5.27 | 6.52 |  |  |  |  |  |  |  |  |  |
| COc1ccc(-c2cnc3cnc(-c4cccc(OC(C)C)c4)cn23)cc1 [compound 1945] | 75 | 75 | 5.24 | 4.86 | 40.1 |  | 75 | 75 | 5.31 |  | 5.17 |  |  |  |  |  |  |  |  |  |
| Cc1ccccc1C(=O)N1N=C(Nc2ccccc2)SC1(C)C [compound 1355] | 75 | 75 | 5.24 | 4.84 | > 50 | 33.8 | 75 | 100 | 5.28 | 4.95 | 5.17 |  |  |  |  |  |  |  |  |  |
| c1ccc(-c2[nH]c3ccccc3c2C(c2ccccn2)N2CCCC2)cc1 (stereo not shown) [compound 1956] | 75 | 100 | 5.60 | 5.43 | > 50 |  | 56 | 81 | 5.49 | 4.93 | 6.30 |  |  |  |  |  |  |  |  |  |
| Cc1c(-c2cnccn2)ssc1=S [Oltipraz] | 51 | 100 | 6.10 |  |  |  | 50 | 95 | 6.07 |  | 6.30 | > 50 | -0.91 ±0.04 | -0.49 ±0.13 | -0.93 ±0.03 | -0.64 ±0.06 | -0.55 ±0.06 | -0.95 ±0.02 | -0.94 ±0.02 | -0.56 ±0.08 |

— article PMC4851381, “High Throughput Screening Identifies Novel Lead Compounds with Activity against Larval, Juvenile and Adult Schistosoma mansoni” (PLoS Neglected Tropical Diseases, 2016)
